Test results: patent US20250221953A1 (The University of Chicago, priority 2022, published 2025)

Columns and labels:
[1] = Extraction and quantification of TVA levels by NMR (mouse serum and TIF); format: in vivo; details: B16F10 tumor bearing mice, TVA-enriched diet; 1H NMR
mouse CD8^+ T cells [2] = assay: RNA-sequencing of CD8+ T cells with or without TVA (also siNTC / siCreb1); format: cell-based; details: 20 μM TVA, 24 h
mouse CD8^+ T cells [3] = assay: KAS-seq, mouse CD8+ T cells; format: cell-based; details: 20 μM TVA, 20 min-2 h
Method: 500 mM N3-kethoxal was then supplemented into the media followed by brief, vigorous shaking to fully homogenize the solution. The 6-well plates were then moved into the cell incubator (37° C., 5% CO2) for 10 minutes to promote labeling of genomic single-stranded DNA (ssDNA). Cell suspensions were then transferred to 15 mL conical tubes and centrifuged at 300×g for 5 minutes at 4° C. The supernatant media was discarded, and genomic DNA was then extracted. […] Dual index libraries were constructed for high throughput sequencing using an Accel-NGS Methyl-seq DNA library kit and then sequenced at the Genomics Facility (University of Chicago) via Illumina NovaSeq 6000 (SP flowcell, 100 bp cassette) in two separate runs. […] M. musculus and H. sapiens CD8^+ T cell KAS-seq data were assessed separately.

human primary T cell = assay: IL-2 production of human primary T cells; format: cell-based; details: 20 μM TVA (FIG. 17B)
Source text: (§1) Two preliminary screens were designed and performed.

Mouse T cell = assay: Second screen: IL-2 level of murine primary T cells; format: cell-based
Source text: as §1

B16F10 tumor = assay: Mouse tumor model, B16F10; format: in vivo; details: B16F10 tumor-bearing C57BL/6 mice on enriched diet vs control diet
Method: For C57BL/6 mice and TCR-a KO mice tumor model, mice were anesthetized with isoflurane, shaved the injection site, and then injected subcutaneously in the abdominal flank with 1×10^5 B16F10, MC38, or LLC1 cells, or in the mammary gland with 2×10^5 E0771 cells. C57BL/6 nude mice were injected subcutaneously in the abdominal flank with 1×10^5B16F10 cells. […] Tumors were measured the tumors using a caliper every 2-3 days. Tumor volumes were calculated using the following formula: length×width×[(length×width)^0.5]×π/6. Mice were euthanized at humane endpoints or day 11-15 for tissue collection.
The mice were treated once a day for 5 consecutive days per week for 2 weeks. Tumors were measured the tumors using a caliper every 2-3 days. Tumor volumes were calculated using the following formula: length×width×[(length×width)^0.5]×π/6. Mice were euthanized at humane endpoints.
For anti-PD-1 treatment mouse model, 6-8 weeks old C57BL/6 mice were anesthetized with isoflurane, shaved the injection site, and then injected subcutaneously in the abdominal flank with 1×10^5 B16F10 for tumor development. […] In day 3, 6, 9, 12, and 15, 250 μg anti-PD-1 (BioXCell) or IgG control (BioXCell) was injected intraperitoneally per mouse. Tumors were measured the tumors using a caliper every 2-3 days. Tumor volumes were calculated using the following formula: length×width×[(length×width)^0.5]×π/6. […]

[4] = system: human T cell and CD8^+ T cell treated with rhPD-L1; assay: rhPD-L1 exhaustion assay of human T cells and CD8+ T cells; format: cell-based; details: 20 μM TVA; 0.5 μg/mL rhPD-L1, 72 hours; IL-2, TNF-α

CCCCCC/C=C/CCCCCCCCCC(=O)O [TVA, trans-vaccenic acid]
average TVA level in tumor interstitial fluid (TIF) [1]: ~48 µM | average serum TVA level [1]: ~386 µM | gene expression (RNA-seq, GSEA) (mouse CD8^+ T cells [2]): enhances expression of the genes enriched in effector CD8^+ T cell function, E2F and MYC pathways | GO enrichment of altered gene bodies (KAS-seq) (mouse CD8^+ T cells [3]): G-protein coupled receptor (GPCR) activities among the top-enriched ontologies | IL-2 production from human primary T cells (human primary T cell): enhances IL-2 production | Mouse T cell IL-2 level changes after treatment (Mouse T cell): 183.5% | IL-2 production from mouse primary T cells (Mouse T cell; 20 μM TVA (FIG. 17A)): enhances IL-2 production | body weights of mice (B16F10 tumor): did not alter body weights | exhaustion of primary human bulk T cells and CD8+ T cells treated with recombinant PD-L1 [4]: significantly reverses exhaustion
